Drawing on patent publication US12473282B2, “Biphenyl fluorine double bond derivative, preparation method therefor, and pharmaceutical application thereof” (Abbisko Therapeutics Co., Ltd., priority 2020, dated 2025), this text covers IC50 and EC50 for 12 compounds.

For experiment [1], the target named is interaction between PD-1 and PD-L1 (Homo sapiens (Human), UniProt Q9NZQ7). Nature of the experiment: PD1-PDL1 HTRF binding activity test (Cisbio PD-1/PD-L1 binding assay kit). The procedure: I. PD1-PDL1 HTRF Binding Activity Test
Sequence of interaction between PD-1 and PD-L1 (Q9NZQ7 19-238): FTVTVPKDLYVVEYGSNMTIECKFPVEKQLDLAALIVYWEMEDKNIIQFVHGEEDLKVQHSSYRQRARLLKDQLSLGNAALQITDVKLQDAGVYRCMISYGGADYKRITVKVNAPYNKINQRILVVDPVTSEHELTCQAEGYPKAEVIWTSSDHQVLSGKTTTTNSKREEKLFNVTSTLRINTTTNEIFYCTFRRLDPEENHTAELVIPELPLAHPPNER
The effect of compounds of the examples of the present invention on the interaction between PD-1 and PD-L1 was determined by the PD-1/PD-L1 binding assay kit from Cisbio (#64ICP01PEG or 64ICP01PEH). The detailed experimental process was as follows: • 1. Pre-diluted compound solution, 4 μL of Tag1-PD-L1 and 4 μL of Tag2-PD1 were added to each well of a 384-well plate; • 2. After the mixture was incubated at room temperature for 15 min, 5 μL of anti-Tag1-Eu3+ antibody and 5 μL of anti-Tag2-XL665 antibody were then added; • 3. After incubated for 2 hrs at room temperature or overnight at 4° C., plates were read on Envision of Pelkin Elmer; and readings at 665 nm and 620 nm were recorded, and the ratio of the two readings was taken as a reading for each well; • 4. The reading of each well after compound treatment was compared with the reading of DMSO treated wells to obtain the percent inhibition of the compound; • 5. IC50 values of compounds and positive compounds of the examples of the present invention were determined by non-linear regression analysis of percent inhibition at different compound concentrations. II. Jurkat Reporter Gene Cellular Assay

Experiment [2] is described as follows: Jurkat reporter gene cellular assay. Format: cell-based. The settings on record: Homo sapiens; Jurkat/NF-κB-luc/PD1 + Raji-PD-L1 coculture, OKT3 1 μg/mL, 6 hrs, activation fold; read-out: Cell Activity EC50. The essentials: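 Jurkat cells stably expressing human PD-1 and NF-κB-luciferase co-cultured with PD-L1-expressing Raji cells (5×10^4 each/well) under OKT3 (1 μg/mL final) with compound. Raji cells preincubated 20 min; luminescence read 6 h after Jurkat addition. EC50 from non-linear regression of fold activation over DMSO.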
Background: Reporter assays use an easily measured gene product as a stand-in for the process of interest.

A word on the IC50: it is the concentration that gives 50% inhibition. A higher IC50 goes with lower potency. The EC50 is the midpoint of the concentration-response curve.

With `COc1cc(/C(F)=C/c2cccc(-c3cccc(NC(=O)c4nc5c(n4C)CCN(C[C@H]4CC[C@H](C(=O)O)CC4)C5)c3C)c2C)ncc1CNC[C@@H]1CCC(=O)N1` [Example 17, (1R,4R)-4-((2-((3′-((Z)-2-fluoro-2-(4-methoxy-5-(((((S)-5-oxopyrrolidin-2-yl)methyl)amino)methyl)pyridin-2-yl)vinyl)-2,2′-dimethyl-[1,1′-biphenyl]-3-yl)carbamoyl)-1-methyl-1,4,6,7-tetrahydro-5H-imidazo[4,5-c]pyridin-5-yl)methyl)cyclohexane-1-carboxylic acid], the half-inhibitory concentration (IC50) in experiment [1] stood at 0.331 nM. The EC50 in experiment [2] is 464 nM.
In the case of `COc1cc(/C(F)=C/c2cccc(-c3cccc(NC(=O)c4nc5c(n4C)CCN(CCC46CCC(C(=O)O)(CC4)C6)C5)c3Cl)c2Cl)ncc1CN1CC(C)(O)C1` [Example 33, (Z)-4-(2-(2-((2,2′-dichloro-3′-(2-fluoro-2-(5-((3-hydroxy-3-methylazetidin-1-yl)methyl)-4-methoxypyridin-2-yl)vinyl)-[1,1′-biphenyl]-3-yl)carbamoyl)-1-methyl-1,4,6,7-tetrahydro-5H-imidazo[4,5-c]pyridin-5-yl)ethyl)bicyclo[2.2.1]heptane-1-carboxylic acid], the IC50 in experiment [1] is 0.489 nM. Also, the 50% effective concentration (EC50) in experiment [2] is 85.8 nM.
Taken in the same sequence, the figures for `COc1cc(/C(F)=C/c2cccc(-c3cccc(NC(=O)c4nc5c(n4C)CCN(CCC46CCC(C(=O)O)(CC4)C6)C5)c3Cl)c2Cl)ncc1CNC[C@@H]1CCC(=O)N1` [Example 34, (S,Z)-4-(2-(2-((2,2′-dichloro-3′-(2-fluoro-2-(4-methoxy-5-((((5-oxopyrrolidin-2-yl)methyl)amino)methyl)pyridin-2-yl)vinyl)-[1,1′-biphenyl]-3-yl)carbamoyl)-1-methyl-1,4,6,7-tetrahydro-5H-imidazo [4,5-c]pyridin-5-yl)ethyl)bicyclo[2.2.1]heptane-1-carboxylic acid] were 0.352 nM and 80.4 nM.
Taken in the same sequence, the figures for `COc1cc(/C(F)=C/c2cccc(-c3cccc(NC(=O)c4nc5c(n4C)CCN(CCC46CCC(C(=O)O)(CC4)C6)C5)c3Cl)c2Cl)ncc1CN[C@@H]1CCOC[C@H]1O` [Example 35, 4-(2-(2-((2,2′-dichloro-3′-((Z)-2-fluoro-2-(5-((((3S,4R)-3-hydroxytetrahydro-2H-pyran-4-yl)amino)methyl)-4-methoxypyridin-2-yl)vinyl)-[1,1′-biphenyl]-3-yl)carbamoyl)-1-methyl-1,4,6,7-tetrahydro-5H-imidazo[4,5-c]pyridin-5-yl)ethyl)bicyclo[2.2.1]heptane-1-carboxylic acid] were 0.638 nM and 93.1 nM.
Taken in the same sequence, the figures for `Cn1c(C(=O)Nc2cccc(-c3cccc(/C=C(\F)c4cc(C5CC5)c(CN5CC(C)(O)C5)cn4)c3Cl)c2Cl)nc2c1CCN(CCC13CCC(C(=O)O)(CC1)C3)C2` [Example 36, (Z)-4-(2-(2-((2,2′-dichloro-3′-(2-(4-cyclopropyl-5-((3-hydroxy-3-methylazetidin-1-yl)methyl)pyridin-2-yl)-2-fluorovinyl)-[1,1′-biphenyl]-3-yl)carbamoyl)-1-methyl-1,4,6,7-tetrahydro-5H-imidazo[4,5-c]pyridin-5-yl)ethyl)bicyclo[2.2.1]heptane-1-carboxylic acid] were 0.306 nM and 3130 nM.
In the case of `COc1cc(/C(F)=C/c2cccc(-c3cccc(NC(=O)c4nc5c(n4C)CCN(CCC46CCC(C(=O)O)(CC4)C6)C5)c3Cl)c2Cl)ncc1CN[C@H](CO)C(=O)O` [Example 37, (R,Z)-4-(2-(2-((3′-(2-(5-(((1-carboxy-2-hydroxyethyl)amino)methyl)-4-methoxypyridin-2-yl)-2-fluorovinyl)-2,2′-dichloro-[1,1′-biphenyl]-3-yl)carbamoyl)-1-methyl-1,4,6,7-tetrahydro-5H-imidazo[4,5-c]pyridin-5-yl)ethyl)bicyclo[2.2.1]heptane-1-carboxylic acid], the IC50 in experiment [1] came out at 0.202 nM. The EC50 in experiment [2] turned out to be 178 nM.
Taken in the same sequence, the figures for `COc1cc(/C(F)=C/c2cccc(-c3cccc(NC(=O)c4nc5c(n4C)CCN(CCC46CCC(C(=O)O)(CC4)C6)C5)c3Cl)c2Cl)ncc1CNCC(F)F` [Example 38, (Z)-4-(2-(2-((2,2′-dichloro-3′-(2-(5-(((2,2-difluoroethyl)amino)methyl)-4-methoxypyridin-2-yl)-2-fluorovinyl)-[1,1′-biphenyl]-3-yl)carbamoyl)-1-methyl-1,4,6,7-tetrahydro-5H-imidazo[4,5-c]pyridin-5-yl)ethyl)bicyclo[2.2.1]heptane-1-carboxylic acid] were 0.332 nM and 977 nM.
Taken in the same sequence, the figures for `COc1cc(/C(F)=C/c2cccc(-c3cccc(NC(=O)c4nc5c(n4C)CCN(CCC46CCC(C(=O)O)(CC4)C6)C5)c3Cl)c2Cl)ncc1CN1CC[C@@H](O)C1` [Example 39, (R,Z)-4-(2-(2-((2,2′-dichloro-3′-(2-fluoro-2-(5-((3-hydroxypyrrolidin-1-yl)methyl)-4-methoxypyridin-2-yl)vinyl)-[1,1′-biphenyl]-3-yl)carbamoyl)-1-methyl-1,4,6,7-tetrahydro-5H-imidazo[4,5-c]pyridin-5-yl)ethyl)bicyclo[2.2.1]heptane-1-carboxylic acid] were 0.238 nM and 64.7 nM.
Taken in the same sequence, the figures for `COc1cc(/C(F)=C/c2cccc(-c3cccc(NC(=O)c4nc5c(n4C)CCN(CCC46CCC(C(=O)O)(CC4)C6)C5)c3Cl)c2Cl)ncc1CN[C@H]1CC[C@@H](O)CC1` [Example 40, 4-(2-(2-((2,2′-dichloro-3′-((Z)-2-fluoro-2-(5-((((1S,4S)-4-hydroxycyclohexyl)amino)methyl)-4-methoxypyridin-2-yl)vinyl)-[1,1′-biphenyl]-3-yl)carbamoyl)-1-methyl-1,4,6,7-tetrahydro-5H-imidazo[4,5-c]pyridin-5-yl)ethyl)bicyclo[2.2.1]heptane-1-carboxylic acid] were 0.31 nM and 179 nM.
`COc1cc(/C(F)=C/c2cccc(-c3cccc(NC(=O)c4nc5c(n4C)CCN(CCC46CCC(C(=O)O)(CC4)C6)C5)c3Cl)c2Cl)ncc1CNC(C)C` [Example 41, (Z)-4-(2-(2-((2,2′-dichloro-3′-(2-fluoro-2-(5-((isopropylamino)methyl)-4-methoxypyridin-2-yl)vinyl)-[1,1′-biphenyl]-3-yl)carbamoyl)-l-methyl-1,4,6,7-tetrahydro-5H-imidazo[4,5-c]pyridin-5-yl)ethyl) bicyclo[2.2.1]heptane-1-carboxylic acid]: the IC50 in experiment [1] was 0.249 nM. In addition, in experiment [2], the EC50 worked out at 86.7 nM.
`COc1cc(/C(F)=C/c2cccc(-c3cccc(NC(=O)c4nc5c(n4C)CCN(CCC46CCC(C(=O)O)(CC4)C6)C5)c3Cl)c2Cl)ncc1CNC(C)(C)C` [Example 50, (Z)-4-(2-(2-((3′-(2-(5-((tert-butylamino)methyl)-4-methoxypyridin-2-yl)-2-fluorovinyl)-2,2′-dichloro-[1,1′-biphenyl]-3-yl)carbamoyl)-1-methyl-1,4,6,7-tetrahydro-5H-imidazo[4,5-c]pyridin-5-yl)ethyl) bicyclo[2.2.1]heptane-1-carboxylic acid] came in with an IC50 in experiment [1] of 0.731 nM. In addition, the EC50 in experiment [2] was 54 nM.
`COc1cc(/C(F)=C/c2cccc(-c3cccc(NC(=O)c4nc5c(n4C)CCN(CCC46CCC(C(=O)O)(CC4)C6)C5)c3Cl)c2Cl)ncc1CN1CC[C@H](O)C1` [Example 59, (S,Z)-4-(2-(2-((2,2′-dichloro-3′-(2-fluoro-2-(5-((3-hydroxypyrrolidin-1-yl)methyl)-4-methoxypyridin-2-yl)vinyl)-[1,1′-biphenyl]-3-yl)carbamoyl)-1-methyl-1,4,6,7-tetrahydro-5H-imidazo[4,5-c]pyridin-5-yl)ethyl)bicyclo[2.2.1]heptane-1-carboxylic acid]: in experiment [1], the 50% inhibitory concentration (IC50) was found to be 0.299 nM. In addition, the EC50 in experiment [2] was 47.5 nM.
